Legend:
Assay type in all cases: in vivo
[1] = tested on: wheat; assay: Pre-emergence test/greenhouse, wheat; settings: 500 g of ai./ha, after three weeks
Procedure: (§1) Solvent: 5 parts by weight of acetone
(§2) Emulsifier: 1 part by weight of alkylaryl polyglycol ether
(§3) To produce a suitable preparation of active compound, 1 part by weight of active compound is mixed with the stated amount of solvent, the stated amount of emulsifier is added and the concentrate is diluted with water to the desired concentration.
(§4) Seeds of the test plants are sown in normal soil. After about 24 hours, the soil is sprayed with the preparation of active compound such that the particular amount of active compound desired is applied per unit area. The concentration of the spray liquor is chosen so that the particular amount of active compound desired is applied in 1000 liters of water per hectare.
(§5) After three weeks, the degree of damage to the plants is rated in % damage in comparison to the development of the untreated control.
(§6) 0%=no effect (like untreated control)

[2] = tested on: Alopecurus; assay: Pre-emergence test/greenhouse, Alopecurus; settings: 500 g of ai./ha, after three weeks
Procedure: as §1, §2, §3, §4, §5, §6

[3] = tested on: Amaranthus; assay: Pre-emergence test/greenhouse, Amaranthus; settings: 500 g of ai./ha, after three weeks
Procedure: as §1, §2, §3, §4, §5, §6

[4] = tested on: maize; assay: Pre-emergence test/greenhouse, maize; settings: 500 g of ai./ha, after three weeks
Procedure: as §1, §2, §3, §4, §5, §6

[5] = tested on: Veronica; assay: Pre-emergence test/greenhouse, Veronica; settings: 504 h, 500 g of ai./ha, after three weeks, read-out: degree of damage, Veronica
Procedure: as §1, §2, §3, §4, §5, §6

[6] = tested on: Solanum; assay: Pre-emergence test/greenhouse, Solanum; settings: 500 g of ai./ha, after three weeks
Procedure: as §1, §2, §3, §4, §5, §6

[7] = tested on: Chenopodium; assay: Pre-emergence test/greenhouse, Chenopodium; settings: 500 g of ai./ha, after three weeks
Procedure: as §1, §2, §3, §4, §5, §6

[8] = tested on: Digitaria; assay: Pre-emergence test/greenhouse, Digitaria; settings: 500 g of ai./ha, after three weeks
Procedure: as §1, §2, §3, §4, §5, §6

CCC(CCc1cc(Br)cs1)Nc1nc(NC(C)=O)nc(C(C)(C)F)n1 (stereo not drawn) [drawing 229]
degree of damage, wheat [1]: 0% | degree of damage, Alopecurus [2]: 95%

CCC(CCc1sccc1Br)Nc1nc(N)nc(C(C)(C)F)n1 (stereo not drawn) [drawing 230]
degree of damage, Amaranthus [3]: 100%

CCC(CCc1sccc1Br)Nc1nc(N)nc(C(C)F)n1 (stereo not drawn) [drawing 231]
degree of damage, Amaranthus [3]: 100%

CCC(CCc1sccc1Br)Nc1nc(NC(C)=O)nc(C(C)F)n1 (stereo not drawn) [drawing 232]
degree of damage, wheat [1]: 0% | degree of damage, Amaranthus [3]: 100%

CCC(CCc1cc(C)sc1C)Nc1nc(N)nc(C(C)F)n1 (stereo not drawn) [drawing 233]
degree of damage, wheat [1]: 0% | degree of damage, Amaranthus [3]: 100% | degree of damage, maize [4]: 0%

CCC(CCc1cc(C)sc1C)Nc1nc(NC(C)=O)nc(C(C)(C)F)n1 (stereo not drawn) [drawing 234]
degree of damage, wheat [1]: 0% | degree of damage, maize [4]: 0%

CCC(CCc1ccc(Br)s1)Nc1nc(N)nc(C(C)F)n1 (stereo not drawn) [drawing 236]
pest or weed control at 500 g/ha [5]: 100% | degree of damage, Solanum [6]: 100% | degree of damage, Chenopodium [7]: 100% | degree of damage, Digitaria [8]: 100%

CCC(CCc1ccc(Br)s1)Nc1nc(N)nc(C(C)(C)F)n1 (stereo not drawn) [drawing 237]
pest or weed control at 500 g/ha [5]: 100% | degree of damage, Solanum [6]: 100% | degree of damage, Chenopodium [7]: 100% | degree of damage, Digitaria [8]: 100%

CCC(CCc1cc(Br)cs1)Nc1nc(NC(C)=O)nc(C(C)F)n1 (stereo not drawn) [drawing 238]
pest or weed control at 500 g/ha [5]: 100% | degree of damage, Chenopodium [7]: 100%

Reference: US6420313B1, “Thienylalkylamino-1,3,5-triazines and the use thereof as herbicides” (Bayer Aktiengesellschaft, priority 1998, dated 2002)
